Among the data in PubChem BioAssay AID977614 (Broad Institute, 2014) are AC50 values, retold here.

Calls of active or inactive are those of the source.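 The calls were made as follows: active = parasite count per well reduced by over 3 SD from the mean, with host cell number above 80% of untreated; inactive = the rest.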

In the assay the test system is L. donovani amastigotes in THP-1 macrophages, DAPI imaging, 72 h. Kind of assay: antileishmanial activity in infected macrophages – imaging, THP-1 host macrophages, single concentration (AID 977614).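 Also: signal is the parasite per host cell ratio from DAPI stained kinetoplasts and nuclei.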

`CCC(=O)N1[C@H](CO)[C@H]2c3ccccc3N(C(=O)Nc3ccc(Cl)cc3)C[C@H]21`: the AC50 (in general, the concentration giving half of the maximal activity seen) is > 10 µM (inactive).
To `C[C@H]1CN([C@@H](C)CO)C(=O)CCCn2nncc2CO[C@@H]1CN(C)C(=O)c1cc(-c2ccccc2)on1` belongs > 10 µM (inactive); to `Cc1cccc(S(=O)(=O)N2C[C@@H]3[C@H](c4ccccc42)[C@H](CO)N3C(=O)c2ccccc2)c1`, > 10 µM (inactive); to `CCNC[C@@H]1[C@@H](c2ccccc2)[C@@H](CO)N1C(=O)Cc1ccccn1`, > 10 µM (inactive).
Under `O=C(c1ccncc1)N1C[C@@H]2[C@H](c3ccccc31)[C@@H](CO)N2C(=O)CN1CCOCC1` stands > 10 µM (inactive); under `O=C(C1CCCCC1)N1[C@@H]2CNc3ccccc3[C@@H]2[C@@H]1CO`, > 10 µM (inactive).
As to `Cc1noc(C)c1S(=O)(=O)N(C)C[C@H]1OCc2cn(nn2)CCCC(=O)N([C@@H](C)CO)C[C@@H]1C`, the AC50 was > 10 µM (inactive).
Take `C/C=C/c1ccc([C@H]2[C@H](CO)N(S(C)(=O)=O)[C@H]2CNCC2CCC2)cc1`: the AC50 was > 10 µM (inactive).
To `CCS(=O)(=O)N(C)C[C@@H]1N[C@H](CO)[C@@H]1c1ccc(C#CC(C)C)cc1` belongs > 10 µM (inactive); to `C/C=C/c1ccc([C@H]2[C@@H](CO)N[C@@H]2CN(C(=O)c2ccccc2F)C(C)C)cc1`, > 10 µM (inactive).
Consider `C[C@@H]1CN([C@@H](C)CO)C(=O)CCCn2nncc2CO[C@@H]1CN(C)C(=O)NC1CCCC1`, for which the AC50 was > 10 µM (inactive).
Under `COCC(=O)N1[C@H](CO)[C@H]2c3ccccc3NC[C@H]21` stands > 10 µM (inactive); under `CCCNC[C@@H]1[C@@H](c2ccc(C3=CCCCC3)cc2)[C@@H](CO)N1C(=O)C1CCC1`, > 10 µM (inactive); under `O=C(c1ccc2c(c1)OCO2)N1C[C@@H]2[C@H](c3ccccc31)[C@H](CO)N2Cc1cccnc1`, > 10 µM (inactive).
In the case of `CC(=O)N1[C@H](CO)[C@H](c2ccccc2)[C@H]1CN(CC1CCC1)C(=O)CN(C)C`, the AC50 is > 10 µM (inactive).
To `OC[C@H]1[C@@H]2c3ccccc3NC[C@@H]2N1CC1CCOCC1` belongs > 10 µM (inactive); to `Cc1noc(C)c1NC(=O)N(C)C[C@H]1OCc2cn(nn2)CCCC(=O)N([C@H](C)CO)C[C@H]1C`, > 10 µM (inactive); to `CN1[C@@H](CO)[C@@H]2c3ccccc3NC[C@@H]21`, > 10 µM (inactive).
Consider `C[C@@H]1CN([C@H](C)CO)C(=O)CCCn2nncc2CO[C@@H]1CN(C)C(=O)Nc1ccc(-c2cccs2)cc1`, for which the AC50 was > 10 µM (inactive).
Turning to `C[C@H]1CN([C@@H](C)CO)C(=O)CCCn2cc(nn2)CO[C@H]1CN(C)C(=O)Oc1ccc2ccccc2c1`, the AC50 is > 10 µM (inactive).
As to `O=C(c1ccncc1)N1C[C@H]2[C@@H](c3ccccc31)[C@@H](CO)N2C(=O)CN1CCOCC1`, the AC50 was > 10 µM (inactive).
For `C[C@@H]1CN([C@@H](C)CO)C(=O)CCCn2nncc2CO[C@H]1CN(C)S(=O)(=O)c1cn(C)cn1`, the AC50 is > 10 µM (inactive).
As for `O=S(=O)(c1ccccc1)N1[C@H](CO)[C@H]2c3ccccc3NC[C@H]21`, the AC50 was > 10 µM (inactive).
Under `O=C(NC[C@H]1[C@H](c2ccccc2)[C@@H](CO)N1C(=O)C1CCC1)NC1CCCC1` stands > 10 µM (inactive); under `CCN(C[C@@H]1[C@@H](c2ccc(C3=CCCCC3)cc2)[C@@H](CO)N1CC1CC1)C(C)=O`, > 10 µM (inactive); under `COc1cccc(C(=O)N2C[C@@H]3[C@H](c4ccccc42)[C@H](CO)N3C(=O)c2cccc(F)c2)c1`, > 10 µM (inactive).
Under `COCC(=O)N(C)C[C@H]1[C@@H](c2ccccc2)[C@H](CO)N1C(=O)Cc1ccncc1` stands > 10 µM (inactive).
For the compound `Cc1cccc(S(=O)(=O)N2C[C@@H]3[C@H](c4ccccc42)[C@@H](CO)N3C(=O)c2ccccc2)c1`, the AC50 was > 10 µM (inactive).
To `COc1ccc(CN2[C@@H](CO)[C@@H]3c4ccccc4NC[C@@H]32)cc1` belongs > 10 µM (inactive); to `O=S(=O)(NC[C@H]1[C@@H](c2ccccc2)[C@@H](CO)N1CC1CC1)c1ccccc1`, > 10 µM (inactive); to `C[C@@H]1CN([C@@H](C)CO)C(=O)CCCn2nncc2CO[C@@H]1CN(C)Cc1cccc(C(F)(F)F)c1`, > 10 µM (inactive).
On to `CCC(=O)N1[C@H](CO)[C@H](c2ccc(C#CC3(O)CCCC3)cc2)[C@@H]1CNC(C)=O`, for which the AC50 is > 10 µM (inactive).
Take `CC(C)N(C[C@H]1N[C@H](CO)[C@H]1c1ccccc1)S(=O)(=O)c1ccccc1`: the AC50 is > 10 µM (inactive).
For the compound `COc1cccc(C(=O)N2C[C@H]3[C@@H](c4ccccc42)[C@@H](CO)N3C(=O)c2cccc(F)c2)c1`, the AC50 was > 10 µM (inactive).
To `OC[C@H]1[C@H]2c3ccccc3NC[C@H]2N1Cc1cccnc1` belongs > 10 µM (inactive); to `Cc1noc(C)c1NC(=O)N(C)C[C@@H]1OCc2cn(nn2)CCCC(=O)N([C@@H](C)CO)C[C@@H]1C`, > 10 µM (inactive).
On to `C[C@H]1CN([C@@H](C)CO)C(=O)CCCn2nncc2CO[C@H]1CN(C)C(=O)CCC(F)(F)F`, for which the AC50 was > 10 µM (inactive).
Under `CN(C[C@@H]1[C@@H](c2ccccc2)[C@H](CO)N1CC1CC1)C(=O)c1ccc(F)cc1` stands > 10 µM (inactive); under `C[C@H]1CN([C@@H](C)CO)C(=O)CCCn2cc(nn2)CO[C@H]1CN(C)C(=O)CCC(F)(F)F`, > 10 µM (inactive).
Under `O=C(c1ccccn1)N1C[C@H]2[C@@H](c3ccccc31)[C@@H](CO)N2C(=O)Nc1ccccc1Cl` stands > 10 µM (inactive); under `COCCN(C[C@@H]1[C@@H](c2ccccc2)[C@H](CO)N1C(=O)C1CC1)C(C)=O`, > 10 µM (inactive).
Under `O=C(C1CCOCC1)N1C[C@H]2[C@@H](c3ccccc31)[C@@H](CO)N2C(=O)Cc1ccccn1` stands > 10 µM (inactive).
On to `CN(C[C@H]1N[C@H](CO)[C@@H]1c1ccc(-c2cccnc2)cc1)C(=O)NC1CCCC1`, for which the AC50 was > 10 µM (inactive).
On to `CCCNC(=O)N1C[C@@H]2[C@H](c3ccccc31)[C@H](CO)N2Cc1cccc(OC)c1`, for which the AC50 is > 10 µM (inactive).
In the case of `C[C@H]1CN([C@@H](C)CO)C(=O)CCCn2cc(nn2)CO[C@H]1CN(C)C(=O)Nc1cccc2ccccc12`, the AC50 is > 10 µM (inactive).
To `C/C=C/c1ccc([C@@H]2[C@@H](CN(C)C(=O)CC3CC3)N(C(=O)C3CC3)[C@H]2CO)cc1` belongs > 10 µM (inactive).
Under `C[C@H]1CN([C@@H](C)CO)C(=O)CCCn2cc(nn2)CO[C@H]1CN(C)C(=O)c1ccc(N2CCN(C)CC2)cc1` stands > 10 µM (inactive); under `CN1C[C@@H]2[C@H](c3ccccc31)[C@H](CO)N2C(=O)c1cccnc1`, > 10 µM (inactive).
As for `O=C(Nc1ccc(F)cc1)N1[C@@H]2CNc3ccccc3[C@@H]2[C@@H]1CO`, the AC50 is > 10 µM (inactive).
Under `CN1C[C@H]2[C@@H](c3ccccc31)[C@H](CO)N2C(=O)C1CCOCC1` stands > 10 µM (inactive).
As to `O=C(CN1CCOCC1)N(CC1CCC1)C[C@H]1N[C@H](CO)[C@@H]1c1ccccc1`, the AC50 was > 10 µM (inactive).
Consider `CCCC(=O)N1C[C@@H]2[C@H](c3ccccc31)[C@@H](CO)N2C(=O)Nc1ccc(F)cc1`, for which the AC50 is > 10 µM (inactive).
As for `O=C(NC[C@H]1N[C@@H](CO)[C@H]1c1ccc(-c2ccccc2F)cc1)c1ccccn1`, the AC50 was > 10 µM (inactive).
As for `COc1ccc(C(=O)N2C[C@H]3[C@@H](c4ccccc42)[C@@H](CO)N3Cc2ccccc2Cl)cc1`, the AC50 was > 10 µM (inactive).
`O=C(c1ccccc1)N1C[C@H]2[C@@H](c3ccccc31)[C@@H](CO)N2Cc1ccccn1`: the AC50 was > 10 µM (inactive).
To `CNC[C@@H]1OCc2cn(nn2)CCCC(=O)N([C@H](C)CO)C[C@@H]1C` belongs > 10 µM (inactive); to `CN1C[C@@H]2[C@H](c3ccccc31)[C@@H](CO)N2Cc1ccccc1Cl`, > 10 µM (inactive); to `C[C@@H]1CN([C@H](C)CO)C(=O)CCCn2nncc2CO[C@@H]1CN(C)C(=O)Nc1ccc2c(c1)OCCO2`, > 10 µM (inactive).
Turning to `O=C(Cc1cccnc1)N1[C@H](CNCC2CCC2)[C@H](c2ccccc2)[C@@H]1CO`, the AC50 was > 10 µM (inactive).
Turning to `CC(C)N(C[C@H]1[C@H](c2ccccc2)[C@H](CO)N1S(C)(=O)=O)C(=O)CN(C)C`, the AC50 was > 10 µM (inactive).
To `COCC(=O)N1C[C@@H]2[C@H](c3ccccc31)[C@H](CO)N2Cc1cc(F)ccc1F` belongs > 10 µM (inactive).
Under `C/C=C/c1ccc([C@H]2[C@@H](CO)N(C(C)=O)[C@H]2CN(C(C)=O)C2CCCC2)cc1` stands > 10 µM (inactive); under `CCC(=O)N1[C@@H](CO)[C@@H]2c3ccccc3N(C(=O)Nc3ccc(Cl)cc3)C[C@@H]21`, > 10 µM (inactive); under `C[C@H]1CN([C@@H](C)CO)C(=O)CCCn2nncc2CO[C@@H]1CN(C)C(=O)Nc1ccnc(N2CCOCC2)c1`, > 10 µM (inactive).
For `C[C@@H]1CN([C@@H](C)CO)C(=O)CCCn2nncc2CO[C@H]1CN(C)C(=O)c1ccc(N2CCN(C)CC2)cc1`, the AC50 is > 10 µM (inactive).
Turning to `CC(C)N(C[C@@H]1[C@@H](c2ccccc2)[C@@H](CO)N1S(C)(=O)=O)C(=O)CN(C)C`, the AC50 is > 10 µM (inactive).
`OC[C@H]1[C@H]2c3ccccc3NC[C@H]2N1Cc1ccccc1Cl`: the AC50 is > 10 µM (inactive).
Turning to `CCC(=O)N1[C@H](CO)[C@H](c2ccccc2)[C@H]1CN(CC1CCC1)S(C)(=O)=O`, the AC50 was > 10 µM (inactive).
On to `C[C@H](CO)N1C[C@H](C)[C@H](CN(C)S(=O)(=O)c2cn(C)cn2)OCc2cnnn2CCCC1=O`, for which the AC50 was > 10 µM (inactive).
Under `C[C@H](CO)N1C[C@H](C)[C@H](CN(C)Cc2ccc3c(c2)OCCN3C)OCc2cnnn2CCCC1=O` stands > 10 µM (inactive).
